Experimental findings from US9102588B2, “Fungicide N-cycloalkyl-N-bicyclic-carboxamide derivatives” (priority 2007, dated 2015) are described below.

Structures are written as SMILES.

This series in a line: logP. The series is classed as physicochemical. As to conditions: intermediate amines of formula (II).
As a reminder, the logP is the decadic logarithm of the partition coefficient of the neutral form, usually between octanol and water. Lower therefore signals lower lipophilicity. In the case of `CC1(C)CCC(NC2CC2)c2ccccc21` (racemic) [Example 178], the logP amounted to 1.26. With `COc1cc2c(cc1OC)C(NC1CC1)C(C)(C)CO2` (stereo not shown) [Example 167] the figure was 1.22; with `Clc1ccc2c(c1)C(NC1CC1)CCO2` (stereo not shown) [Example 176], 0.83. As for `CC1Cc2ccccc2C1NC1CC1` (stereo not shown) [Example 171], the logP came to 0.81. The compound `c1ccc2c(c1)OCCC2NC1CC1` (stereo not shown) [Example 175] gave a logP of 0.32. With `CC1(C)CC(NC2CC2)c2ccccc21` (stereo not shown) [Example 174], the lipophilicity (logP) was determined as 1.15. In turn, `c1ccc2c(c1)SCCC2NC1CC1` (racemic) [Example 177] gave a lipophilicity (logP) of 0.67.
